The record followed here is ChEMBL document CHEMBL1697781, “Assessment of the health effects of chemicals in humans: II. Construction of an adverse effects database for QSAR modeling” (Curr Drug Discov Technol, 2004).

What all share (settings): human
For data set [1], the system named is Hepatotoxicity. Description: FDA HLAED, serum glutamic oxaloacetic transaminase (SGOT) increase.
Data set [2] relates to Hepatotoxicity. As to the kind of experiment: FDA HLAED, lactate dehydrogenase (LDH) increase.
In data set [3] the test system is Hepatotoxicity. As to the kind of experiment: FDA HLAED, gamma-glutamyl transferase (GGT) increase.
Data set [4] has as its system Hepatotoxicity. Description: FDA HLAED, serum glutamic pyruvic transaminase (SGPT) increase.
Data set [5] deals with Hepatotoxicity. Description: FDA HLAED, liver enzyme composite activity.
In data set [6] the test system is Hepatotoxicity. As to the kind of experiment: FDA HLAED, alkaline phosphatase increase.
For GGT Increase - Index Value in this document: reference of the scale not given here.
For LDH Increase - Index Value in this document: reference of the scale not given here.

`CN1C2CCCC1CC(NC(=O)c1nn(C)c3ccccc13)C2` (stereo unspecified) [GRANISETRON]: in data set [1], the “SGOT Increase - Activity Score” value is given as “Inactive”, the “SGOT Increase - Index Value” worked out at 0.6 and the “SGOT Increase - Number of Reports” value is recorded as less than 4. In data set [2], the “LDH Increase - Activity Score” value is on record as “Inactive”, the “LDH Increase - Index Value” came to 0.2 and the “LDH Increase - Number of Reports” value was less than 4. Further, in data set [3], the “GGT Increase - Activity Score” value is reported as “Inactive”, the “GGT Increase - Index Value” was 0.2 and the “GGT Increase - Number of Reports” value is less than 4. Besides, in data set [4], the “SGPT Increase - Activity Score” value is recorded as “Inactive”, the “SGPT Increase - Index Value” stood at 0.6 and the “SGPT Increase - Number of Reports” value is given as less than 4. For the same molecule, in data set [5], the “Composite Activity - Active” value came out at 0, the “Composite Activity - Marginal” value is recorded as 0 and the “Composite Activity - Score” value is reported as “Inactive”. Also, in data set [6], the “Alkaline Phosphatase Increase - Activity Score” value is on record as “Inactive”, the “Alkaline Phosphatase Increase - Index Value” is 1 and the “Alkaline Phosphatase Increase - Number of Reports” value is on record as “>= 4”.

As to `CC(C)COCC(CN(Cc1ccccc1)c1ccccc1)N1CCCC1` (stereo unspecified) [BEPRIDIL], in data set [1], the “SGOT Increase - Activity Score” value is recorded as “Inactive”, the “SGOT Increase - Index Value” stood at 0 and the “SGOT Increase - Number of Reports” value is on record as less than 4. In addition, in data set [2], the “LDH Increase - Activity Score” value is listed as “Inactive”, the “LDH Increase - Index Value” was found to be 27.1 and the “LDH Increase - Number of Reports” value was less than 4. Moreover, in data set [3], the “GGT Increase - Activity Score” value is on record as “Inactive”, the “GGT Increase - Index Value” is listed as 0 and the “GGT Increase - Number of Reports” value was less than 4. For the same molecule, in data set [4], the “SGPT Increase - Activity Score” value is recorded as “Inactive”, the “SGPT Increase - Index Value” amounted to 0 and the “SGPT Increase - Number of Reports” value is on record as less than 4. In data set [5], the “Composite Activity - Active” value was found to be 0, the “Composite Activity - Marginal” value is on record as 0 and the “Composite Activity - Score” value is recorded as “Inactive”. For the same molecule, in data set [6], the “Alkaline Phosphatase Increase - Activity Score” value is “Inactive”, the “Alkaline Phosphatase Increase - Index Value” is 0 and the “Alkaline Phosphatase Increase - Number of Reports” value was less than 4.

As to `CCOC(=O)c1cncn1[C@H](C)c1ccccc1` [ETOMIDATE], in data set [1], the “SGOT Increase - Activity Score” value is listed as “Inactive”, the “SGOT Increase - Index Value” is reported as 0 and the “SGOT Increase - Number of Reports” value was less than 4. Moreover, in data set [2], the “LDH Increase - Activity Score” value is “Inactive”, the “LDH Increase - Index Value” is reported as 0 and the “LDH Increase - Number of Reports” value is recorded as less than 4. Moreover, in data set [3], the “GGT Increase - Activity Score” value is “Inactive”, the “GGT Increase - Index Value” is reported as 0 and the “GGT Increase - Number of Reports” value is listed as less than 4. Further, in data set [4], the “SGPT Increase - Activity Score” value is given as “Inactive”, the “SGPT Increase - Index Value” was determined as 0 and the “SGPT Increase - Number of Reports” value is less than 4. In addition, in data set [5], the “Composite Activity - Active” value is 0, the “Composite Activity - Marginal” value is 0 and the “Composite Activity - Score” value is listed as “Inactive”. In data set [6], the “Alkaline Phosphatase Increase - Activity Score” value was “Inactive”, the “Alkaline Phosphatase Increase - Index Value” is listed as 0 and the “Alkaline Phosphatase Increase - Number of Reports” value is listed as less than 4.

On to `COc1cc2nc(N3CCN(C(=O)C4CCCO4)CC3)nc(N)c2cc1OC` (stereo unspecified) [TERAZOSIN], for which, in data set [1], the “SGOT Increase - Activity Score” value is reported as “Inactive”, the “SGOT Increase - Index Value” was 1.6 and the “SGOT Increase - Number of Reports” value was “>= 4”. Besides, in data set [2], the “LDH Increase - Activity Score” value is listed as “Inactive”, the “LDH Increase - Index Value” is reported as 0.5 and the “LDH Increase - Number of Reports” value is recorded as less than 4. In data set [3], the “GGT Increase - Activity Score” value was “Inactive”, the “GGT Increase - Index Value” was found to be 0.8 and the “GGT Increase - Number of Reports” value was less than 4. In addition, in data set [4], the “SGPT Increase - Activity Score” value is reported as “Inactive”, the “SGPT Increase - Index Value” was determined as 1.3 and the “SGPT Increase - Number of Reports” value is given as “>= 4”. Also, in data set [5], the “Composite Activity - Active” value came out at 0, the “Composite Activity - Marginal” value is reported as 0 and the “Composite Activity - Score” value is on record as “Inactive”. For the same molecule, in data set [6], the “Alkaline Phosphatase Increase - Activity Score” value is given as “Inactive”, the “Alkaline Phosphatase Increase - Index Value” was found to be 0.5 and the “Alkaline Phosphatase Increase - Number of Reports” value is recorded as less than 4.

Take `CCOC(=O)[C@H](CCc1ccccc1)N[C@@H](C)C(=O)N1Cc2cc(OC)c(OC)cc2C[C@H]1C(=O)O` [MOEXIPRIL]: in data set [1], the “SGOT Increase - Activity Score” value is listed as “Inactive”, the “SGOT Increase - Index Value” was found to be 1.3 and the “SGOT Increase - Number of Reports” value was less than 4. In data set [2], the “LDH Increase - Activity Score” value was “Inactive”, the “LDH Increase - Index Value” turned out to be 0 and the “LDH Increase - Number of Reports” value was less than 4. In data set [3], the “GGT Increase - Activity Score” value is “Inactive”, the “GGT Increase - Index Value” stood at 0 and the “GGT Increase - Number of Reports” value was less than 4. For the same molecule, in data set [4], the “SGPT Increase - Activity Score” value is “Inactive”, the “SGPT Increase - Index Value” amounted to 1.3 and the “SGPT Increase - Number of Reports” value is on record as less than 4. In data set [5], the “Composite Activity - Active” value came to 0, the “Composite Activity - Marginal” value is on record as 0 and the “Composite Activity - Score” value is recorded as “Inactive”. Moreover, in data set [6], the “Alkaline Phosphatase Increase - Activity Score” value is “Inactive”, the “Alkaline Phosphatase Increase - Index Value” was 0 and the “Alkaline Phosphatase Increase - Number of Reports” value is given as less than 4.

For the molecule `CCC(C)n1ncn(-c2ccc(N3CCN(c4ccc(OCC5COC(Cn6cncn6)(c6ccc(Cl)cc6Cl)O5)cc4)CC3)cc2)c1=O` (stereo unspecified) [ITRACONAZOLE], in data set [1], the “SGOT Increase - Activity Score” value is “Active”, the “SGOT Increase - Index Value” is recorded as 19.6 and the “SGOT Increase - Number of Reports” value was “>= 4”. In data set [2], the “LDH Increase - Activity Score” value is “Active”, the “LDH Increase - Index Value” amounted to 5.8 and the “LDH Increase - Number of Reports” value is given as “>= 4”. Besides, in data set [3], the “GGT Increase - Activity Score” value is on record as “Active”, the “GGT Increase - Index Value” came to 14.1 and the “GGT Increase - Number of Reports” value is listed as “>= 4”. Also, in data set [4], the “SGPT Increase - Activity Score” value was “Active”, the “SGPT Increase - Index Value” was found to be 19.8 and the “SGPT Increase - Number of Reports” value was “>= 4”. In data set [5], the “Composite Activity - Active” value amounted to 5, the “Composite Activity - Marginal” value is listed as 0 and the “Composite Activity - Score” value is reported as “Active”. Further, in data set [6], the “Alkaline Phosphatase Increase - Activity Score” value is given as “Active”, the “Alkaline Phosphatase Increase - Index Value” is 12.4 and the “Alkaline Phosphatase Increase - Number of Reports” value is on record as “>= 4”.

With `O=C(c1ccccc1)c1ccc2n1CCC2C(=O)O` (stereo unspecified) [KETOROLAC], in data set [1], the “SGOT Increase - Activity Score” value is given as “Inactive”, the “SGOT Increase - Index Value” is recorded as 0.9 and the “SGOT Increase - Number of Reports” value is reported as “>= 4”. In addition, in data set [2], the “LDH Increase - Activity Score” value was “Inactive”, the “LDH Increase - Index Value” worked out at 0.5 and the “LDH Increase - Number of Reports” value is recorded as “>= 4”. For the same molecule, in data set [3], the “GGT Increase - Activity Score” value is given as “Inactive”, the “GGT Increase - Index Value” turned out to be 0.5 and the “GGT Increase - Number of Reports” value is recorded as less than 4. Further, in data set [4], the “SGPT Increase - Activity Score” value is reported as “Inactive”, the “SGPT Increase - Index Value” is 0.6 and the “SGPT Increase - Number of Reports” value was “>= 4”. In addition, in data set [5], the “Composite Activity - Active” value was determined as 0, the “Composite Activity - Marginal” value is on record as 0 and the “Composite Activity - Score” value is recorded as “Inactive”. In data set [6], the “Alkaline Phosphatase Increase - Activity Score” value is on record as “Inactive”, the “Alkaline Phosphatase Increase - Index Value” was 1.4 and the “Alkaline Phosphatase Increase - Number of Reports” value is recorded as “>= 4”.
